From patent US10344279B2, “Methods for the prevention and the treatment of extracapillary glomerulonephritis” (INSERM (Institut National de la Sante et de la Recherche …, priority 2014, dated 2019)

Legend:
NTS-challenged mice = experiment: NTS-induced crescentic glomerulonephritis (RPGN): albuminuria, BUN, crescentic glomeruli; format: in vivo
Method: Podocyte-specific disruption of Stat3 mice were generated by crossing podocin-Cre positive mice (63) with Stat3 floxed mice (64) on C57BL6/J background. Their age-matched littermates with no deletion of Stat3 in any cells are considered as controls. […] Stattic (25 mg/kg) was administered in i.p. way every other day for 10 days. 10 weeks old 129S2/SvPasCr male mice were randomly treated with Stattic and were compared to vehicle-treated (DMSO) littermates.
The glomerulonephritis was induced on male mice (10-12 weeks of age) by intravenous injection of 15 μL of sheep anti-glomerular basement membrane (GBM) nephrotoxic serum (NTS), which was diluted with 85 μL of sterile phosphate buffer solution. Serum injections were repeated twice (on days 2 and 3) at 6 μL/g of body weight and 7 μL/g respectively.
Urinary creatinine and blood urea nitrogen (BUN) concentrations were analyzed by a standard colorimetric method (Olympus AU400) at the Biochemistry Laboratory of Institut Claude Bernard (IFR2, Faculté de Médecine Paris Diderot). Urinary albumin excretion was measured using a specific ELISA assay for quantitative determination of albumin in mouse urine (CellTrend GmbH).
Kidneys were harvested and fixed in 4% formal. Paraffin-embedded sections (5 μm thick) were stained by Masson's trichrome to evaluate kidney morphology and determine proportion of crescentic glomeruli by a blinded examination on at least 50 glomeruli per section.
For preventive strategy, antagomiR treatment (12 mg/kg) started 3 days before NTS injection. AntagomiRs (VBC biotech, Vienna) were delivered by retro-orbital i.v. injections under brief anesthesia. Second and third injections were performed on days 1 and 3 with NTS injection. For curative strategy, antagomir were injected on days 4, 5 and 8 after NTS. A scramble antagomiR (Antagomir-Control) was used as control. The sequences were obtained from previously published manuscript (66). In the miR-92 antagomir and control antagomir, the 2′O RNA base are methylated followed by first two bases and last 3 bases are phosphorothiated to increase the stability of antagomir from degradation. In addition, a cholesterol-TEG was added at the 3′ for easy entry of antagomir into the cells. AntagomiR-Control (SEQ ID NO: 7, anti-miR-ctrl): 5′-[…]-3′ and antagomiR-92a (SEQ ID NO: 8, anti-miR-92a): 5′-[…]-3′ as shown to be effective after in vivo administration in kidneys (34, 67). Saline-treated mice were used as control of the scramble antagomiR.

primary podocytes = experiment: Podocyte outgrowth (proliferation) assay from isolated decapsulated glomeruli; format: cell-based, mouse; conditions: for podocyte outgrowth area / proliferation of cultured primary podocytes: Pod-Stat3 WT podocytes treated with Stattic, quantified at day 4
Method: Mouse kidneys were extracted, minced, and digested in 2 mg/mL collagenase I solution (Gibco) in RPMI 1640 (Invitrogen) at 37° C. for 3 minutes, then filtered through a 70-μm cell strainer and one more through a 40-μm cell strainer. The homogenate was centrifuged at 720 g for 6 minutes and cells plated. Isolated glomeruli were then collected in Phosphosafc extraction buffer (Novagen) for protein extraction or in RLT extraction buffer (Qiagen) for total RNA extraction. For podocyte primary culture, freshly isolated glomeruli were plated in 6-plate dishes in RPMI 1640 (Invitrogen) supplemented by 10% Fetal Calf Serum (Biowest) and 1% penicillin-streptomycin (Invitrogen). The outgrowth of podocytes started between days 2 and 3. Podocyte outgrowth area was quantified at day 4 using ImageJ software. After 4 days of primary culture, podocytes were trypsinized then plated into μ-Dish 35 mm high with Culture-Insert (Ibidi). Ibidi's wounding inserts were used for cell migration studies. The coverage of the 500-μm gap was assessed after 12 hours of culture and podocyte migration area was quantified using ImageJ software. The effects of HB-EGF (10 ng/mL, Preprotech) or AG1478 (1 μM, Calbiochem) or anti-mIL-6 monoclonal antibody MP5-20F3 (10 μg/mL, eBiosciences) or Stattic (2 μM, Calbiochem) on differentiated podocytes was applied during 16 hours. After stimulation, podocytes were scrapped in Phosphosafe buffer for protein extraction or in RLT buffer for total RNA extraction. […] Anti-miR-Control#1 was used as control (All from Ambion, 50 nM).

[1] = test system: Ki67 and PCNA mRNA expression in primary podocytes; experiment: RT-PCR of proliferation markers Ki67 and PCNA in primary podocyte cultures; format: cell-based, mouse
Method: After 4 days of primary culture, podocytes were trypsinized then plated into μ-Dish 35 mm high with Culture-Insert (Ibidi). Ibidi's wounding inserts were used for cell migration studies. The coverage of the 500-μm gap was assessed after 12 hours of culture and podocyte migration area was quantified using ImageJ software. The effects of HB-EGF (10 ng/mL, Preprotech) or AG1478 (1 μM, Calbiochem) or anti-mIL-6 monoclonal antibody MP5-20F3 (10 μg/mL, eBiosciences) or Stattic (2 μM, Calbiochem) on differentiated podocytes was applied during 16 hours. After stimulation, podocytes were scrapped in Phosphosafe buffer for protein extraction or in RLT buffer for total RNA extraction. Total RNA extraction of mice glomeruli was performed using an Rneasy Minikit (Qiagen) and reverse transcribed into cDNA using the Quantitect Reverse Transcription kit (Qiagen) according to the manufacturer's protocol. cDNA and standard were amplified in Maxima SYBR Green/Rox qPCR mix (Fermentas) on an ABI PRISM thermo cycler. The comparative method of relative quantification (2-ΔΔCT) was used to calculate the expression level of each target gene, normalized to GAPDH. The oligonucleotide sequences are available upon request. The data are presented as the fold change in gene expression. […] Anti-miR-Control#1 was used as control (All from Ambion, 50 nM).

[2] = Stattic 25 mg/kg i.p. every other day, day 10 after NTS, 129S2 mice
[3] = antagomiR 12 mg/kg i.v., preventive strategy, 10 days after NTS, vs anti-miR-ctrl or vehicle

O=[N+]([O-])c1ccc2c(c1)S(=O)(=O)C=C2 [Stattic]
albuminuria (urinary albumin excretion rate) (NTS-challenged mice; [2]): trend to decreased
alleviation of the rise in blood urea nitrogen (BUN) concentrations (NTS-challenged mice; [2]): 50%
proportion of crescentic glomeruli (NTS-challenged mice; [2]): reduced
podocyte outgrowth area / proliferation of cultured primary podocytes (primary podocytes): inhibited
podocyte outgrowth area / proliferation of cultured primary podocytes (primary podocytes; listed as STAT3 inhibitor): significantly reduced
Ki67 expression in primary podocytes ([1]; Stattic 2 μM for 16 hours): markedly blunted
PCNA expression in primary podocytes ([1]; Stattic 2 μM for 16 hours): markedly blunted

anti-miR-92a: 2′O-methylated, end-phosphorothioated antagomir with 3′ cholesterol-TEG, SEQ ID NO: 8, 5′-CAGGCCGGGACAAGUGCAAUA-3′ (VBC biotech) (listed as RNA, chemistry not fully specified)
kidney dysfunction (blood urea nitrogen concentrations) (NTS-challenged mice; [3]): strong decrease
urinary albumin excretion (NTS-challenged mice; [3]): strong decrease
glomerular crescents formation (NTS-challenged mice; antagomiR 12 mg/kg i.v., preventive strategy, vs NTS+anti-miR-ctrl, P<0.05): -44%
results in curative strategy (miR-92a expression, albuminuria, BUN, p57-positive cells) (NTS-challenged mice; antagomir injection on days 4, 5 and 8 after NTS, read at day 10): validated
podocyte outgrowth (primary podocytes; anti-miR-92a transfected (50 nM), over 4 days, vs control cells or anti-miR control): decrease
Ki67 mRNA level ([1]; anti-miR-92a transfected (50 nM) primary podocytes, vs control cells or anti-miR control): decrease
